Experimental data reported in patent publication US10934255B2, “Nrf and HIF activators/HDAC inhibitors and therapeutic methods using the same” (THE BOARD OF TRUSTEES OF THE UNIVERSITY OF ILLINOIS, priority 2017, dated 2021).

Experiments:
HDAC11 = biological target: T1, HDAC11 (Homo sapiens, UniProt Q96DB2); experiment: HDAC11 isoform selectivity assay; type: biochemical; conditions: Table 2 isoform selectivity; read-out: HDAC Inhibition (IC50 uM) isoform 11
T1 sequence (Q96DB2 1-347): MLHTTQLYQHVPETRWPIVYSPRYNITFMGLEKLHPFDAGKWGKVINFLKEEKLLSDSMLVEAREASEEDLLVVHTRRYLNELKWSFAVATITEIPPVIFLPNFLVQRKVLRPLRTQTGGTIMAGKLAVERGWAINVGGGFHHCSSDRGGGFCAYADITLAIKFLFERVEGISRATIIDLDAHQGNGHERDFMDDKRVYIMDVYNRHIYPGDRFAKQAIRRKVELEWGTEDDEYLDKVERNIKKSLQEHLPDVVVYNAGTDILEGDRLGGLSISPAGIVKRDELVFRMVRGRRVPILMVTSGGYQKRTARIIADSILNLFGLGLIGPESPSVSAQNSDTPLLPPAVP
Experimental: The HDAC1, 2, 4, 5, 6, 7, 8, 9, 10, and 11 assays used isolated recombinant human protein; HDAC3/NcoR2 complex was used for the HDAC3 assay. […] Acetyl-Lys(trifluoroacetyl)-AMC substrate was used for HDAC4, 5, 7, and 9 assays. […] IC50 values were extracted by curve-fitting the dose/response slopes. Assays were performed in duplicate and IC50 values are an average of data from both experiments.

HDAC2 = HDAC2 (Homo sapiens, UniProt Q92769); experiment: HDAC2 isoform selectivity assay; type: biochemical; conditions: Table 2 isoform selectivity; read-out: HDAC Inhibition (IC50 uM) isoform 2
Chain of HDAC2 (Q92769 whole entry, the tested form may be a part, canonical isoform): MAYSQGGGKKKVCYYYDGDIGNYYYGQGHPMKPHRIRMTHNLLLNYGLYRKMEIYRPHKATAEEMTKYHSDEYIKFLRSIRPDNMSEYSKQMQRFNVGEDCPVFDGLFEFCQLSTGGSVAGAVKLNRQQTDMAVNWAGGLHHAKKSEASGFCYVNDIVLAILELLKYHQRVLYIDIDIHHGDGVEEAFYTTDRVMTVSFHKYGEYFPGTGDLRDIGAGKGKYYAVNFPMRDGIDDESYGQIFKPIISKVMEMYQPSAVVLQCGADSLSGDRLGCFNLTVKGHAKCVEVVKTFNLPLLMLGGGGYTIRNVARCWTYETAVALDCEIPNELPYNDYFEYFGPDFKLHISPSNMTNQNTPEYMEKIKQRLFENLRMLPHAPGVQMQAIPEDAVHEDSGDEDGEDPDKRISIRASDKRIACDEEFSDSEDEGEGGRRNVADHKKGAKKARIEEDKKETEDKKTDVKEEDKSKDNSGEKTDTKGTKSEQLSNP
Experimental: (§1) The HDAC1, 2, 4, 5, 6, 7, 8, 9, 10, and 11 assays used isolated recombinant human protein; HDAC3/NcoR2 complex was used for the HDAC3 assay. Substrate for HDAC1, 2, 3, 6, 10, and 11 assays is a fluorogenic peptide from p53 residues 379-382 (RHKKAc); substrate for HDAC8 is fluorogenic diacyl peptide based on residues 379-382 of p53 (RHKAcKAc). Acetyl-Lys(trifluoroacetyl)-AMC substrate was used for HDAC4, 5, 7, and 9 assays. Compounds were dissolved in DMSO and tested in 10-dose IC50 mode with 3-fold serial dilution starting at 30 μM. Control Compound Trichostatin A (TSA) was tested in a 10-dose IC50 with 3-fold serial dilution starting at 5 μM. IC50 values were extracted by curve-fitting the dose/response slopes. Assays were performed in duplicate and IC50 values are an average of data from both experiments.

HDAC4 = HDAC4 (Homo sapiens, UniProt P56524); experiment: HDAC4 isoform selectivity assay; type: biochemical; conditions: Table 2 isoform selectivity; read-out: HDAC Inhibition (IC50 uM) isoform 4
Chain of HDAC4 (P56524 whole entry, canonical isoform): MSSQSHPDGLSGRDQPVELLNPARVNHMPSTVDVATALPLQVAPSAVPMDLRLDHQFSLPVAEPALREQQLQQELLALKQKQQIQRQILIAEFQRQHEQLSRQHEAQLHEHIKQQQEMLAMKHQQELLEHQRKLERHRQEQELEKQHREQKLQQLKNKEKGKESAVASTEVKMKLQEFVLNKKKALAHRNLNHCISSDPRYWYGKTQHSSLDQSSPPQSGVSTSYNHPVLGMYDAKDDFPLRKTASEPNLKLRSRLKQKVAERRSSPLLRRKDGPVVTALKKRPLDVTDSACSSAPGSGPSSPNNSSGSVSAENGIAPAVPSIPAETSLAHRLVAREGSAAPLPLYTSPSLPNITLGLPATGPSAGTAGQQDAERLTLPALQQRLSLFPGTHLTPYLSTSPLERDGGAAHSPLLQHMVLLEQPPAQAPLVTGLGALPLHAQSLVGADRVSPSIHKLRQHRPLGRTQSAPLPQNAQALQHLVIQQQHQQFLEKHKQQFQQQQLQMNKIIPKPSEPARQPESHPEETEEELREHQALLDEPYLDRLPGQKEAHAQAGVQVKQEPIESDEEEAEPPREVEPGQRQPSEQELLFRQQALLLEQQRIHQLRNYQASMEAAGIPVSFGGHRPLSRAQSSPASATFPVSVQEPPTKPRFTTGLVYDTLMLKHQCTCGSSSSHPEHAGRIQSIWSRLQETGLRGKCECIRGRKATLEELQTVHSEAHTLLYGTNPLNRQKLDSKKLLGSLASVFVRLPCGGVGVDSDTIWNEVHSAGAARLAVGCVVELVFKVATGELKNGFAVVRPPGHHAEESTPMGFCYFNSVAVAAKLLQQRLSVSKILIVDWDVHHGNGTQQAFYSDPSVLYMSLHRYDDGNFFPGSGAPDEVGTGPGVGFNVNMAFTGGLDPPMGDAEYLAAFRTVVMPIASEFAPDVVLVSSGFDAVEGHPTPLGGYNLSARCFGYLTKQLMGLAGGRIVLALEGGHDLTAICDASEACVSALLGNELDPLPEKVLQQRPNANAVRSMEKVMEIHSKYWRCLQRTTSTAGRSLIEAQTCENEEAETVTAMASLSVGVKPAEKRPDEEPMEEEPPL
Experimental: as §1

[1] = liver-on-a-chip assay, viability of HepaRG hepatocytes by MTT; type: cell-based; conditions: human, HepaRG hepatocytes in liver-on-a-chip, read-out: LC50
C57BL/6 mice = experiment: Behavioral screening in the SmartCube (SC) platform; type: in vivo; conditions: 50 mg/kg ip
Experimental: FIG. 4 contains the SC signature of II-ING-6 (50 mg/kg, ip) showing anxiolytic activity.
Another evidence that II-ING-6 is can cross the BBB was obtained from SC (Frontiers in Neuroscience 2011, 5 (103), p. 1-4) experiment. SC provides a sequence of challenges to mice and captures more than 2,000 features during a 1 hour testing session. These features are analyzed with computer algorithms and data mining approaches to automate the study of mice behavior and compared to a database of behavioral signatures obtained using a set of diverse reference compounds, including antidepressants, cognitive enhancers, antipsychotics, and anxiolytics. In this assay, C57BL/6 mice were injected with compound II-ING-6 at 50 mg/kg (ip).

[2] = test system: TA98-S9, TA100-S9, TA1535-59, and TA1537-59; experiment: Ames test (genetic toxicity); design: species or system bacterium; conditions: concentrations of 0.6-100 μM
Experimental: Compound II-ING-6 was tested in genetic toxicity assays to assess the mutagenic potential of the compound. The Ames test was done with several strains of bacterium, such as: TA98-S9, TA100-S9, TA1535-59, and TA1537-59.

SH-SY5Y cells = experiment: Oxygen glucose deprivation (OGD) in SH-SY5Y cells (MTT); type: cell-based, human; conditions: for Neuroprotection against OGD, pretreatment: pretreatment 24 h prior to OGD insult; for Neuroprotection against OGD, post-treatment: treatment after OGD
Experimental: FIG. 3A contains bar graphs showing a concentration dependence of II-ING-6 and II-ING-66 neuroprotection in SH-SY5Y cells subject to OGD: 24 h pretreatment.
FIG. 3B contains bar graphs showing concentration dependencies of II-ING-6 and II-ING-66 neuroprotection in SH-SY5Y cells subject to OGD: treatment post OGD. Cell viability was measured using the MTT assay 24 h post insult.
(§2) II-ING-6 and II-ING-66, were tested in neuronal cell lines subjected to H2O2 and MPP+-induced toxicity (Parkinson's disease model), and in a composite model of ischemia-reperfusion injury: oxygen glucose deprivation (OGD). In H2O2-induced neurotoxicity in human neuronal SH-SY5Y cells, neuroprotective properties of compounds II-ING-6 and II-ING-66 were assessed using 24 h pretreatment regimen (FIG. 2A). […] Neuroprotection against OGD is expected to be mediated by HIF-1α and Nrf2. In this assay, after pretreatment of cells 24 h prior to OGD insult, both compounds were neuroprotective (FIG. 3A).

mouse neuronal N2a cells = experiment: MPP+ neurotoxicity in N2a cells (Presto-Blue); type: cell-based; conditions: 5 μM compound, MPP+ 100 μM, 24 h
Experimental: FIG. 2B contains bar graphs showing test compounds at 5 μM protected N2a cells against MPP+(100 μM) insult. Cell viability was measured at 24 h using Presto-Blue assay.
as §2

[3] = In vitro metabolic stability in human liver microsomes; type: in vitro ADME; conditions: human liver microsomes after 60 min at 10 uM
[4] = test system: human neuronal SH-SY5Y cells; experiment: H2O2-induced neurotoxicity in SH-SY5Y cells (MTT); type: cell-based; conditions: 24 h pretreatment, MTT at 24 h
Experimental: FIG. 2A contains bar graphs showing the concentration-dependent neuroprotection of SH-SY5Y cells from H2O2-induced toxicity. Cell viability was measured using the MTT assay at 24 h. […] (B) Test compounds at 5 μM protected N2a cells against MPP+ (100 μM) insult. Cell viability was measured at 24 h using Presto-Blue assay.
as §2

Nrf2 target genes = experiment: In vivo activation of Nrf2 pathway (RT-PCR of target genes); conditions: 3 month old male C57BL/6 mice, 25 mg/kg i.p.
Experimental: The expression of Nrf2 target genes was assessed in 3 month old male C57BL/6 mice administered with II-ING-66 (25 mg/kg i.p.). […] These in vivo data support the in vitro observations of HIF-1α and Nrf2 activation by phenylhydroxamate HDAC inhibitors (Gaisina et al, ACS Chem. Neurosci. 2017).

## Cn1c(NCc2ccc(C(=O)NO)cc2)nc2ccccc21 [II-ING-13, N-Hydroxy-4-(((1-methyl-1H-benzo[d]imidazol-2-yl)amino)methyl)benzamide]
HDAC11
  IC50: 2.11 µM
HDAC2
  IC50: 5.2 µM
HDAC4
  IC50: 2.42 µM

## O=C(NO)c1ccc(CN2CCc3ccc(Cl)cc32)cc1 [II-ING-6, 4-((6-Chloroindolin-1-yl)methyl)-N-hydroxybenzamide]
[1]
  CC50 at 48 h: > 500 µM
C57BL/6 mice
  SC signature (behavioral class): anxiolytic effect
[2]
  Ames test result (mutagenic potential): Negative
HDAC11
  IC50: 4.52 µM
HDAC2
  IC50: 6.24 µM
HDAC4
  IC50: 3.48 µM
SH-SY5Y cells
  Neuroprotection against OGD, pretreatment: neuroprotective
  Neuroprotection against OGD, post-treatment: significant neuroprotection
Mouse neuronal N2a cells
  Protection against MPP+ neurotoxicity: significant protection
[3]
  Microsomes stability (% remaining vsT0): 88.6 % remaining vsT0
[4]
  Neuroprotection from H2O2-induced toxicity: Significant neuroprotection

## O=C(NO)c1ccc(CN2C(=O)C(F)(F)c3ccccc32)cc1 [II-ING-66, 4-((3,3-Difluoro-2-oxoindolin-1-yl)methyl)-N-hydroxybenzamide]
Nrf2 target genes
  Hmox-1 expression in the liver: significantly upregulated
  Hmox-1 expression in ventral midbrain and striatum: significant increases
  NQO1 expression in ventral midbrain and striatum: significant increases
[1]
  CC50 at 48 h: > 500 µM
SH-SY5Y cells
  Neuroprotection against OGD, pretreatment: neuroprotective
  Neuroprotection against OGD, post-treatment: significant neuroprotection only for compound II-ING-6
Mouse neuronal N2a cells
  Protection against MPP+ neurotoxicity: significant protection
[4]
  Neuroprotection from H2O2-induced toxicity: Significant neuroprotection

## O=C(NO)c1ccc(CN2CCc3cc(Cl)ccc32)cc1 [II-ING-39, 4-((5-Chloroindolin-1-yl)methyl)-N-hydroxybenzamide]
[3]
  Microsomes stability (% remaining vsT0): 81.7 % remaining vsT0

## O=C(NO)c1ccc(CN2CCc3ccc(F)cc32)cc1 [II-ING-41, 4-((6-Fluoroindolin-1-yl)methyl)-N-hydroxybenzamide]
HDAC11
  IC50: 5.37 µM
HDAC2
  IC50: 7.15 µM
HDAC4
  IC50: 2.41 µM
[3]
  Microsomes stability (% remaining vsT0): 88.1 % remaining vsT0
